Results as given in patent US5225543A, “Receptors method for purification of G protein-linked” (priority 1991, dated 1993).
“Also recorded” adds a separate entry of the source. Where no end group is shown, it is not given here. The star is where a group is joined. Biotin = O=C1N[C@H]2[C@H](CS[C@H]2CCCCC(=O)*)N1; Ahx = NCCCCCC(=O)O

Experiments:
[1] = tested on: receptor:ligand complex (GH4 C1 membranes, [^125 I]Tyr11-S14); test: Detergent solubilization of specifically bound [^125 I]Tyr11-S14 from GH4 C1 membranes and recovery of intact complex (FIGS. 2, 3); settings: [^125 I]Tyr11-S14, FIG. 2
Description: (§1) To solubilize membranes, washed pellets after the binding step are resuspended free of visible particles by pipetting and vortexing in solubilization buffer+1/100 (vol/vol) of 100× 4Pase protease inhibitors+detergent at the desired concentration. After 1 hour on ice, the samples are centrifuged at 100,000×g for 30 minutes. The supernatants are removed and held on ice and the pellets are discarded.
(§2) Sephadex G-50 columns (8×130 mm) are equilibrated with solubilization buffer containing detergent at the concentration used to solubilize membranes and 1 mg/ml bovine serum albumin. 0.2-0.5 ml samples of solubilized membranes are applied to the columns and eluted at a flow rate of about 0.7 ml/minute. 0.18 ml samples are collected. Radioactivity is determined in a gamma counter as described under "Receptor Binding Methods". Void volumes of the columns are determined by the elution volume of blue dextran. Radioactivity eluting in the void volume (>50,000 MW) was considered bound to protein. […] The mixture is held on ice for 15 minutes. Then 3 ml of 0.1M sodium phosphate (pH 7.4) is added to a final part of 4 ml per sample and the samples are rapidly (1-3 seconds) filtered over Whatman GF/B glass fiber filters and washed with 4 ml of the phosphate buffer. […] Whatman GF/B glass fiber filters are soaked in 0.3% polyethyleneimine (PEI, Sigma) for 3 hours. 25-100 ul samples of solubilized membranes are placed in 12×75 mm polypropylene tubes. Then 4 ml of solubilization buffer (without detergent) is added per sample and the samples are immediately filtered through the GFB/PEI filters (1-3 seconds) and washed with 4 ml of solubilization buffer. […] 0.5 gm of Dextran T70 (Pharmacia) is dissolved in 1 liter of water and then 5 gm of activated charcoal (Norit A, alkaline; Fisher Scientific) is added. The suspension is stirred for 10 minutes at room temperature and then stored at 4° C. until use. To measure R:L complex, 4 parts by volume of charcoal/dextran suspension are added to 1 part by volume of solubilized membrane. The samples are mixed and held on ice for 2 minutes and then centrifuged for 2 minutes at 11,000×g in a Beckman microfuge. Free radioligand is adsorbed to charcoal/dextran and is discarded with the pellet.

[2] = target: receptor:ligand complex (GH4 C1 membranes, [^125 I]BioS28) (Rattus norvegicus, UniProt P30680); test: Detergent solubilization of receptor:[^125 I]BioS28 complex, charcoal/dextran assay (Table 2A); settings: for Solubilization of specifically bound CPM (%): based on 14,013 cpm specifically bound [^125 I]BioS28 per sample; for Solubilized CPM in intact R:L complex (%): charcoal/dextran method; for solubilization and stabilization of receptor:ligand complex: [^125 I]BioS28, Table 2A
Sequence of receptor:ligand complex (GH4 C1 membranes, [^125 I]BioS28) (P30680 whole entry, one chain of several): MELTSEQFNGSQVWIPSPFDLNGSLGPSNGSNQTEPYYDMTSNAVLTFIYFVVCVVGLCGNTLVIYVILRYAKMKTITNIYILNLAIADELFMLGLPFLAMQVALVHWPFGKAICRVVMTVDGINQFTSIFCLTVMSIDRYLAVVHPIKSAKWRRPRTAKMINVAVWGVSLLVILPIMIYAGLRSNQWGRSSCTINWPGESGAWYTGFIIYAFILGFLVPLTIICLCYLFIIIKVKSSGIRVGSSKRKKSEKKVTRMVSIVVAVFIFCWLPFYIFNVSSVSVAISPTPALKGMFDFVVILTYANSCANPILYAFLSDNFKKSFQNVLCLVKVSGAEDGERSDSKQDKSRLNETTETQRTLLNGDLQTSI
Description: as §1, §2
Membrane solubilization is conducted as already described; however, determination of the presence of the intact receptor:ligand complex in the 100,000×g supernatant is accomplished by charcoal/dextran assay ("Methods: Assay of Solubilized, 4.").

streptavidin = test: Effect of detergent on binding of solubilized R:L complex to streptavidin (Table 2B); settings: for % of original R:L complex bound to SA: % R:L bound to SA × % solubilization of original R:L complex; for % of intact R:L nonbound to SA in 5 hours: streptavidin-agarose, charcoal/dextran assay
Description: The final determination is whether the detergent interferes with binding of the receptor:[^125 I]BioS-28. […] R:L complex in the supernatants ("non-bound to SA") after this time is measured by the charcoal/dextran assay. The % of non-bound, intact R:L complex is calculated from the ratio (R:L non-bound to SA/original R:L in the 100,000×g supernatant). The % of intact R:L complex bound to SA is calculated by subtracting % non-bound R:L from 100%. Finally, % of original R:L bound to SA=% R:L bound to SA×% solubilization of original membrane-bound R:L complex.

[3] = target: T1, SRIF receptor (GH4 C1 membranes) (Rattus norvegicus, UniProt P30680); test: Competitive radioligand binding vs [^125 I]Tyr11-S14 on GH4 C1 membranes (FIG. 4); settings: for IC50: vs [^125 I]Tyr11-S14, 20 ug GH4 C1 membrane protein, 100,000 cpm (FIG. 4B)
T1 construct: GH4 C1 rat pituitary tumor cells; endogenous in cells; host or cells: GH4 C1 rat pituitary tumor cells (isolated membranes)
T1 sequence (P30680 whole entry): as the sequence (P30680 whole entry, one chain of several) above
Description: Membrane Isolation--1-8 liter batches of cells at densities of 6-10×10^5 cells/ml are pelleted in conical bottom glass centrifuge bottles (600 or 800 ml; Bellco) at 1,000× g for 5 min. The supernatants are carefully poured off and the cells are resuspended in ice cold homogenization medium (1 mM Na-bicarbonate at pH 7.6, 1 mM EDTA and 1 mM EGTA) containing 0.7% (vol/vol) of the "100×4pase" protease inhibitor cocktail (see below). Twenty ml of homogenization medium is used for every liter of suspension culture. After 5 min. on ice, the hypotonically swollen cells are homogenized with 10 strokes of a tight fitting Dounce homogenizer (Kontes, type A pestle). The homogenate is centrifuged at 1,000× g for 10 min. and the supernatant is removed and kept on ice. The 1,000× g pellet containing residual intact cells, nuclei and DNA is washed by gently homogenizing with 4 strokes with a type B pestle in one half the original volume of homogenization medium and recentrifuging for 10 min. at 1,000× g. The final 1,000× g pellet consists mostly of DNA and is discarded. The 1,000× g supernatants are combined and centrifuged at 20,000× g for 30 min. The 20,000× g pellet is washed twice in 25 mM Tris (pH 7.4), with centrifugation for 25 min. at 20,000 2 g. Final membrane pellets are resuspended in 25 mM Tris buffer to concentrations of 4-10 mg membrane protein/ml. Then the 100× 4pase protease inhibitor cocktails are added to 1% of final volume and aliquots are frozen on dry ice. Membranes are stored at -90° C. until needed. Membrane protein is assayed with the Bradford dye binding assay (Bio-Rad).
Standard Binding Assays--Binding assays are done in a binding buffer containing 50 mM HEPES (pH 7.4), 0.5% BSA and 5 mM MgCl2. The standard assay for [^125 I]SRIF analog binding to GH4 CL membranes, done in 96 well microtiter plates (Dynatech Immulon II Removawell plates), is carried out as follows: 1. Radioligand is diluted in binding buffer+PMSF/Baci to the desired cpm per vol. of 50 μl and then 50 μl aliquots are added to the wells. For non-specific binding samples, 5 μl of 40 μM cold S14 is also added per well. […] Binding is initiated by adding 150 μl per well of membrane diluted to the desired concentration (10-30 ug membrane protein/well) in binding buffer+PMSF/Baci. Plates are then covered with Linbro mylar plate sealers (Flow Labs) and placed on a Dynatech Microshaker II and binding is allowed to proceed at room temperature for 1-2 hours. Binding is stopped by centrifuging the plate for 15 minutes at 2,000×g. The supernatants are dumped off and membrane pellets washed once by addition of 200 μl of ice cold binding buffer, brief shaking and recentrifugation. Finally the individual wells are placed in 12×75 mm tubes and counted in an LKB Gammamaster counter (78% efficiency). […]

Compound | solubilization of receptor:ligand complex / bound radioligand [1] | % Solubilization of original R:L in membranes (A × B) [2] | Solubilization of specifically bound CPM (%) [2] | Solubilized CPM in intact R:L complex (%) [2] | % of intact R:L bound to SA (100% - A) (streptavidin) | % of original R:L complex bound to SA (streptavidin) | % of intact R:L nonbound to SA in 5 hours (streptavidin) | solubilization and stabilization of receptor:ligand complex [2] | potency relative to S14 in competitive binding assay ([3]; % the potency of S14, 40 ug membrane protein, 85,000 cpm (FIG. 4A)) | IC50 [3]
C[C@H](CCC(=O)NCCC[N+](C)(C)CCCS(=O)(=O)[O-])[C@H]1CC[C@H]2[C@@H]3[C@H](O)C[C@@H]4C[C@H](O)CC[C@]4(C)[C@H]3C[C@H](O)[C@]12C [CHAPS] | total solubilization of radioligand is relatively low; also recorded: did not solubilize well at all at any concentration tested | 12% | 38% | 32% | 56% | 7% | 44% |  |  | 
C[C@H](CCC(=O)O)[C@H]1CC[C@H]2[C@@H]3CC[C@@H]4C[C@H](O)CC[C@]4(C)[C@H]3C[C@H](O)[C@]12C [Deoxycholate] | superior solubilization | 31% | 93% | 33% | 89% | 29% | 11% | satisfactory results |  | 
C[C@@H]1CC[C@@]2(OC1)O[C@H]1[C@@H](O)[C@H]3[C@@H]4CC[C@H]5C[C@@H](O[C@@H]6O[C@H](CO)[C@H](O[C@@H]7O[C@H](CO)[C@@H](O)[C@H](O[C@@H]8OC[C@@H](O)[C@H](O)[C@H]8O)[C@H]7O[C@@H]7O[C@H](CO)[C@H](O)[C@H](O[C@@H]8O[C@H](CO)[C@@H](O)[C@H](O)[C@H]8O)[C@H]7O)[C@H](O)[C@H]6O)[C@H](O)C[C@]5(C)[C@H]4CC[C@]3(C)[C@H]1[C@@H]2C [Digitonin] | less satisfactory but adequate levels of solubilization | 28% | 55% | 50% | 87% | 24% | 13% | satisfactory results |  | 
Biotinyl-NH--SRIF14 [Bio-S14] |  |  |  |  |  |  |  |  | about 1.5% | 
Biotinyl-[NH--(CH2)5 --CO]2 --NH-(Tyr11)SRIF14 ({Biotin-Ahx-Ahx}-AGCKNFFWKTYTSC; ends and bridges not checked; UniProt P61278 103-116, looked up, variant F11Y) [Bio-12C-S14] |  |  |  |  |  |  |  |  |  | 2 nM
Biotinyl-[NH--(CH2)5 --CO]--NH-(Tyr11)SRIF14 ({Biotin-Ahx}-AGCKNFFWKTYTSC; ends and bridges not checked; UniProt P61278 103-116, looked up, variant F11Y) [Bio-6C-S14] |  |  |  |  |  |  |  |  |  | 2 nM
Lysolecithin | less satisfactory but adequate levels of solubilization | 33% | 73% | 46% | 36% | 16% | 65% | satisfactory results |  | 
